Tested on: rabbit platelets
Test: In vitro platelet aggregation (turbidimetry, platelet-rich plasma)
Assay type: cell-based
Settings: for activity on this in vitro platelet aggregation test: result in words, concentration and aggregating agent not stated
Procedure: The platelet aggregation is measured by the turbidimetry method inspired by Born, by detecting the optical transmission through a platelet-rich plasma (PRP) to which and aggregating agent has been added. When the platelets aggregate, the plasma becomes clear and the optical transmission increases. Blood is taken (3 tubes per rabbit) by cardiac puncture from a rabbit into tubes containing sodium citrate. To obtain the platelet-rich plasma (PRP), the tubes are centrifuged at 160 g for 10 minutes. The supernatants are collected (PRP) and the pellet is re-centrifuged at 2000 g for 15 minutes to obtain the platelet-poor plasma (PPP). By dilution with the PPP, the PRP is adjusted to a concentration of 300,000 platelets per mm^3±10%. The counting is carried out using a Coulter ZM counter. Tubes containing 320 μl of PRP are incubated at +37° C. for 30 minutes in pre-incubation wells. The aggregometer is calibrated with the PPP for an optical transmission of 100% corresponding to a complete aggregation, and with the PRP obtained from the same rabbit for an optical transmission of 0% corresponding to the absence of aggregation. The test product P is added in a volume of 40 μl. After incubation for 2 minutes, the aggregating agent (10 μM ADP, 0.2 mM sodium arachidonate or collagen […]) is added in a volume of 40 μl. The aggregation begins immediately and can be seen on the printer. On the plot obtained, the height of the aggregation curve is measured in cm from the baseline before addition of the aggregating agent, and then converted into mVolts (=1/OD) using the formula 10 mV=2.5 cm.

Q: Which “activity on this in vitro platelet aggregation test” value (“activity on this” for short) does the source give for `CCC1OC(=O)C(C)C(=O)C(C)C(OC2OC(C)CC(N(C)C)C2O)C(C)(OC)CC(C)C(=O)C(C)C2N(CCCCn3cnc(-c4cccnc4)n3)C(=O)OC12C` (centres unmarked) [Product P1] here?
A: good activity

Q: How did the “% of inhibition of the aggregation induced by arachidonic acid” value (shortened to “% of inhibition … by arachidonic acid”) (product concentration 10^−4 M, rabbit platelets, arachidonic acid 0.2 mM) turn out when `CC[C@H]1OC(=O)[C@H](C)C(=O)[C@H](C)[C@@H](O[C@@H]2O[C@H](C)C[C@H](N(C)C)[C@H]2O)[C@](C)(OC)C[C@@H](C)C(=O)[C@H](C)[C@H]2N(COCCn3cnc(-c4cccnc4)c3)C(=O)O[C@]12C` [Product P] was run?
A: 90%

Q: And the “% of inhibition … by arachidonic acid” value (product concentration 10^−5 M, rabbit platelets, arachidonic acid 0.2 mM)?
A: 73%

Q: And the “% of inhibition … by arachidonic acid” value (product concentration 10^−6 M, rabbit platelets, arachidonic acid 0.2 mM)?
A: 42%

Q: And the “% of inhibition … by arachidonic acid” value (product concentration 10^−7 M, rabbit platelets, arachidonic acid 0.2 mM)?
A: 7%

Q: With `CC(=O)Oc1ccccc1C(=O)O` [Aspirin, reference compound] as the molecule, how does the inhibition at 50 µM (Oryctolagus cuniculus, Platelet, product concentration 5 × 10^−5 M, rabbit platelets, arachidonic acid 0.2 mM, read-out: % of inhibition of the aggregation induced by arachidonic acid) read?
A: 85%

Q: What about the inhibition at 100 µM (Oryctolagus cuniculus, Platelet, product concentration 10^−4 M, rabbit platelets, arachidonic acid 0.2 mM, read-out: % of inhibition of the aggregation induced by arachidonic acid) of the same molecule?
A: 100%

Q: What about the inhibition at 10 µM (Oryctolagus cuniculus, Platelet, product concentration 10^−5 M, rabbit platelets, arachidonic acid 0.2 mM, read-out: % of inhibition of the aggregation induced by arachidonic acid) of the same molecule?
A: 13%

Q: And the inhibition at 1 µM (Oryctolagus cuniculus, Platelet, product concentration 10^−6 M, rabbit platelets, arachidonic acid 0.2 mM, read-out: % of inhibition of the aggregation induced by arachidonic acid)?
A: 8%

Q: Which “activity on this” value does the source give for `CCC1OC(=O)C(C)C(=O)C(C)C(OC2OC(C)CC(N(C)C)C2O)C(C)(OC)CC(C)C(=O)C(C)C2N(CCCCn3cnc(-c4cccnc4)c3)C(=O)OC12C` [Product P3, 11,12-dideoxy-3-de((2,6-dideoxy-3-C-methyl-3-O-methyl-alpha-L-ribohexopyranosyl)oxy)-6-O-methyl-3-oxo-12,11-(oxycarbonyl((4-(4-(3-pyridyl)-1H-imidazol-1-yl)butyl)imino))erythromycin] here?
A: good activity

Q: Which “activity on this” value does the source give for `CCC1OC(=O)C(C)(F)C(=O)C(C)C(OC2OC(C)CC(N(C)C)C2O)C(C)(OC)CC(C)C(=O)C(C)C2N(CCCCn3cnc(-c4cccnc4)c3)C(=O)OC12C` [Product P2, 11,12-dideoxy-3-de((2,6-dideoxy-3-C-methyl-3-O-methyl-alpha-L-ribohexopyranosyl)oxy)-2-fluoro-6-O-methyl-3-oxo-12,11-(oxycarbonyl((4-(4-(3-pyridyl)-1H-imidazol-1-yl)butyl)-imino))erythromycin] here?
A: good activity
